What all share (format): cell-based
Experiment [1] concerns the target T1, CMKLR1 (Homo sapiens, UniProt Q99788).
T1 sequence (Q99788 1-373): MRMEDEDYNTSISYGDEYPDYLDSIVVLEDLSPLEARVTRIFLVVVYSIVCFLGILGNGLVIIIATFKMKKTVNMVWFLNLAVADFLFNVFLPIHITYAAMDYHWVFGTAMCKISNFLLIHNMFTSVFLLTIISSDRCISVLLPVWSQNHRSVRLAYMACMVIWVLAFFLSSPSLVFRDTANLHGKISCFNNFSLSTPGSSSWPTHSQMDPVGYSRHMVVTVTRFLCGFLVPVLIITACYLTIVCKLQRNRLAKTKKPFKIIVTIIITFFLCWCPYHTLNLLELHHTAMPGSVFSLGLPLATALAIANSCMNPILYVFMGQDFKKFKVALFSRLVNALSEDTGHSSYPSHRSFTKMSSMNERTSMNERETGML
The experiment in a line: ERK1/2 phosphorylation in MEF cells, CMKLR1. As to conditions: PTX pre-treatment, 300 nM chemerin. Set-up: expressed in transfected cells.
Description: Whole cell lysates were resolved on 10% Tris/Tricine polyacrylamide gels and transferred to nitrocellulose membranes. […] Chemiluminescent detection was performed using ECL-Plus reagent (Perkin Elmer).
Results are expressed as the ratio between the amounts of phospho-ERK1/2 and total ERK1/2 following quantification. […] MEF cells were derived form β-Arr1 KO and WT1 or β-Arr2 KO and WT2 siblings.

Experiment [2] addresses T2, GPR1 (Homo sapiens, UniProt P46091).
T2 sequence (P46091 1-355): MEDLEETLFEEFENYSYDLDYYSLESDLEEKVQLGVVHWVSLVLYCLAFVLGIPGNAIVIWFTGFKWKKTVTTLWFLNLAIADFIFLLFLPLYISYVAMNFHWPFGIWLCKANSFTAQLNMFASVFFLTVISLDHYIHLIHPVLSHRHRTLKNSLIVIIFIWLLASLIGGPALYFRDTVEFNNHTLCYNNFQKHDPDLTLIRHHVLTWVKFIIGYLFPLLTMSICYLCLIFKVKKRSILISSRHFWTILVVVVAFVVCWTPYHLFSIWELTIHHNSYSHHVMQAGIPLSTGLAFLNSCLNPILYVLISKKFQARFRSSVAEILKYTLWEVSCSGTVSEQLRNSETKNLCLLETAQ
The experiment in a line: ERK1/2 phosphorylation in MEF cells, GPR1. As to conditions: PTX pre-treatment, 300 nM chemerin. Set-up: expressed in transfected cells. On the procedure: CHO-K1 and MEF cells stably expressing receptors of interest were starved for 12–18 h in serum-free medium prior to stimulation. […] Whole cell lysates were resolved on 10% Tris/Tricine polyacrylamide gels and transferred to nitrocellulose membranes. Phosphorylated ERK1/2 and total ERK1/2 were detected by using rabbit polyclonal anti-phospho-ERK1/2 (Cell Signaling #4370, 1:1,000) and anti-ERK1/2 (Cell Signaling #4695S, 1:2,000) antibodies. Chemiluminescent detection was performed using ECL-Plus reagent (Perkin Elmer).
We next investigated the contribution of Gαi/o proteins and arrestins to ERK1/2 phosphorylation by using mouse embryonic fibroblast cells (MEF) deficient for the expression of arrestins (β-Arr1^-/- and β-Arr2^-/-) and stably expressing CMKLR1 or GPR1. […] However, we cannot rule out that the weak activation of G proteins by GPR1 contributes to ERK1/2 phosphorylation. We also must take into consideration that these assays display different levels of amplification and were performed in different cell types.
Fig 10 Contribution of Gi/o proteins and arrestins to CMKLR1- and GPR1-mediated ERK1/2 phosphorylation. […] Results are expressed as the ratio between the amounts of phospho-ERK1/2 and total ERK1/2 following quantification. […] Statistical significance was assessed using Tukey's test (***P < 0.0001; ** and ^## P< 0.001; * and ^# P< 0.01).

Experiment [3] deals with T2, GPR1. The experiment in a line: β-arrestin BRET recruitment assay, GPR1. Set-up: expressed in transfected cells; host or cells: HEK293T. Particulars: GPR1, HEK293T; PTX pretreatment, 100 nM chemerin. The method, then: (§1) β-arrestin recruitment was measured by a BRET proximity assay as previously described. Briefly, plasmids encoding Rluc-β-arrestin 2 and receptors fused to Venus were cotransfected into HEK293T cells by using the calcium phosphate method. […] BRET^1 between RLuc and YFP was measured after the addition of coelenterazine h (5 μM, Promega).
(§2) Data represent the mean ± S.E.M. of three independent experiments.
as §2

For experiment [4], the target named is T1, CMKLR1. Kind of experiment: β-arrestin BRET recruitment assay, CMKLR1. Set-up: expressed in transfected cells; host or cells: HEK293T. Particulars: CMKLR1, HEK293T; PTX pretreatment, 100 nM chemerin. On the procedure: as §1, §2, §2

From PMC5055294 (PLoS ONE, 2016) come the findings set out here.

For the substance Pertussis toxin, the “effect of PTX on ERK1/2 phosphorylation” value at CMKLR1 [1] and on GPR1 [2] was “partially inhibited” throughout. Moreover, the “effect of PTX on β-arrestin1 recruitment” value on GPR1 [3] is “inhibits partially β-arrestin1 recruitment to CMKLR1 and GPR1”; on CMKLR1 [4], “inhibits partially β-arrestin1 recruitment to CMKLR1 and GPR1”. The “effect of PTX on β-arrestin2 recruitment” value was “did not inhibit β-arrestin2 recruitment to CMKLR1 and GPR1” at GPR1 [3]; “did not inhibit β-arrestin2 recruitment to CMKLR1 and GPR1” on CMKLR1 [4].
